Results as given in US8404672B2, “Substituted heterocyclic compounds” (Bristol-Meyers Squibb Company, priority 2009, dated 2013).

Tests used:
[1] = target: T1, S1P3 (membranes from S1P3 transfected CHO cells) (Homo sapiens, UniProt Q99500); assay: Method B: Receptor [35S] GTPγS SPA Binding Assay, S1P3; format: biochemical
T1 construct: expressed in transfected cells; host or cells: CHO cells
Method: Method B: Receptor [35S] GTPγS SPA Binding Assays
Membranes prepared from S1P1 or S1P3 transfected CHO cells ([…]) were incubated in 96-well white plates (CORNING® 3693) with test compounds diluted in DMSO, in 50 μl of reaction mixture containing 7.5 μl WGA-PVT beads (20 mg/ml), and 5 μM GDP, 20 mM HEPES pH 7.4, 100 mM NaCl, 1 mM EDTA, 5 mM MgCl2, 10 μg/ml saponin, 0.1% BSA, and 1 μM leupeptin. The assay was initiated with the addition of […] of 0.2 nM [^35S]-GTPγS (1250 Ci/mmol; NEN) in assay buffer. After 90 min incubation at room temperature, spin the plate at 1000 rpm for 5 min. The bound radionuclides were measured at TOPCOUNT®, expressed as % response relative to S1P (1 μM) activation. Data was analyzed using the four parameter logistic equation in Excel. The four parameters in the equation, Y=A+((B−A)/(1+((EC50/X)^D))), are described as following: A is the Y value (agonist activity) at the bottom plateau; B is the Y value at the top plateau; EC50 is the X value (agonist concentration) when the response is halfway between bottom and top; D is Hill coefficient. Curves were not generated for compounds having Ymax values were below 50%.
Compounds of the present invention and Comparative Compound A were tested in the Receptor [35S] GTPγS Binding Assays (Method A) and Receptor [35S] In some instances, the value is an average of multiple experiments where N is the number of experiments conducted that provided satisfactory dose response curves. When more than one batch of an example was tested, the value presented is from a batch which allowed a comparison of GTPγS S1P1 and GTPγS S1P3 in which the most number of experiments were performed. Preferably, the same batch was examined in Method A and Method B. Data was not averaged across different batches of an example compound.

[2] = test system: circulating lymphocytes; assay: Blood Lymphocyte Reduction Assay (BLR) in rats; format: in vivo; details: Lewis rats, oral, vs vehicle group
Method: Blood Lymphocyte Reduction Assay (BLR) in Rodents
Lewis rats or BALB/c mice were dosed orally with test article (as a solution or suspension in the vehicle) or vehicle alone (polyethylene glycol 300, “PEG300”). Blood was drawn at 4 hr and 24 h by retro-orbital bleeding. Blood lymphocyte counts were determined on an ADVIA® 120 Hematology Analyzer (Siemens Healthcare Diagnostics). The results were measured as a reduction in the percentage of circulating lymphocytes as compared to the vehicle treated group at the 4 hr and 24 hr measurement. The results represent the average results of all animals within each treatment group (n=3-4).
A compound of the present invention was tested in the Blood Lymphocyte Reduction assay (BLR) described hereinabove and the results are shown in Table D for rats and Table E for mice.

[3] = test system: rat adjuvant-induced arthritis model (hind paw volume); assay: Rat Adjuvant Induced Arthritis Assay (AA); format: in vivo, Male Lewis rats; details: for Paw Swelling on Day 20 (Mean): vehicle mean 1.11
Method: Rat Adjuvant Induced Arthritis Assay (AA)
Male Lewis rats (150-175 g; Harlan, n=8 treatment group) were immunized at the base of the tail with 100 μl of 10 mg/ml freshly ground Mycobacterium butyricum (Difco Laboratories) in incomplete Freund's adjuvant (sigma). Animals were dosed once daily with the test article (as a solution or suspension in the vehicle) or vehicle alone (polyethylene glycol 300, “PEG300”) starting from the day of immunization. The volumes of their hind paws were measured in a water displacement plethysmometer (Ugo Basile, Italy). The baseline paw measurements were taken before onset of the disease (between day 7 to day 10). The paw measurements were then taken three times a week until the end of the study on day 20. All procedures involving animals were reviewed and approved by the Institutional Animal Care Use Committee.
A compound of the present invention was tested in the Rat Adjuvant Induced Arthritis assay described hereinabove and the results are shown in Table F.

T1 sequence (Q99500 whole entry): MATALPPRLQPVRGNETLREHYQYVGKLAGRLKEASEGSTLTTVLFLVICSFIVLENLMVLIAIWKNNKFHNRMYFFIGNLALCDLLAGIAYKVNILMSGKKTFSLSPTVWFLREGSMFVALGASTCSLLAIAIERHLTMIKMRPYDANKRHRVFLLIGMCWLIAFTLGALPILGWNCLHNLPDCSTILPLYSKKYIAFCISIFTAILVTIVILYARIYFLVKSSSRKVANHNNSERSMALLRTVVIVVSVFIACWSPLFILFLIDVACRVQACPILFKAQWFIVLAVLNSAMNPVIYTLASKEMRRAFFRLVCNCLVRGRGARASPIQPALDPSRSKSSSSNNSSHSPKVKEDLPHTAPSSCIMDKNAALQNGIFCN

## O=C(O)C1CN(Cc2ccc(-c3noc(-c4onc(-c5ccccn5)c4C(F)(F)F)n3)cc2)C1 [Example 1, 1-(4-(5-(3-(Pyridin-2-yl)-4-(trifluoromethyl)isoxazol-5-yl)-1,2,4-oxadiazol-3-yl)benzyl)azetidine-3-carboxylic acid]
[1]
  EC50: 6.2 µM
[2]; 0.3 mg/kg
  % reduction in lymphocytes at 4 hr.: 82%
  % reduction in lymphocytes at 24 hr.: 48%
[2]; 1.0 mg/kg
  % reduction in lymphocytes at 4 hr.: 85%
  % reduction in lymphocytes at 24 hr.: 80%
[3]; 0.03 mg/kg once daily from day of immunization
  Paw Swelling on Day 20 (Mean): 1.48 mL
[3]; 0.1 mg/kg once daily from day of immunization
  Paw Swelling on Day 20 (Mean): 1.41 mL
[3]; 0.5 mg/kg once daily from day of immunization
  Paw Swelling on Day 20 (Mean): 0.72 mL
[3]; 3.0 mg/kg once daily from day of immunization
  Paw Swelling on Day 20 (Mean): 0.07 mL
[3]; Lewis rat, prophylactic oral dosing
  disease progression as measured by paw swelling (in words): inhibits disease progression
